Laboratory results published in patent US20260258020A1, “CRYSTAL FORM OF PIPERAZINE AMIDE DERIVATIVE, PREPARATION METHOD THEREFOR AND USE THEREOF” (ZHEJIANG HISUN PHARMACEUTICAL CO., LTD., priority 2022, published 2026).

What was measured:
[1] = Stability test (purity and XRPD pattern after 30 days storage); format: physicochemical; conditions: for stability compared to the amorphous form: conclusion from Table 6
Experimental: X-ray powder diffraction instrument and test conditions involved in the present disclosure: the model of the X-ray diffraction instrument was Rigaku MiniFlex-600 Cu target; the operation method included a scanning speed of 10°/min and scanning step width of 0.01°.
High-performance liquid chromatography (HPLC) test conditions involved in the present disclosure: the model of the liquid chromatograph was Agilent 1260; the chromatographic column was Welch XB C-18 250 mm*4.6 mm 3 μm; the detection wavelength was 260 nm; and the column temperature was 40° C.
The amorphous form of compound represented by Formula I prepared in the described preparation examples, the crystal form A of the compound represented by Formula I prepared in Example 1, the crystal form B of the compound represented by Formula I prepared in Example 9, the crystal form C of the compound represented by Formula I prepared in Example 12, the crystal form D of the compound represented by Formula I prepared in Example 17, and the crystal form E of the compound represented by Formula I prepared in Example 20 were placed under various conditions: 75% RH, 92.5% RH, 40° C., 60° C., and illumination for 30 days, the X-ray powder diffraction pattern and purity of each crystal form were determined, and the specific results are shown in Table 6.

Granularity test = format: physicochemical
From the text: (§1) The amorphous form of the compound represented by Formula I prepared in Preparation Example, the crystal form A of the compound represented by Formula I prepared in Example 1, the crystal form B of the compound represented by Formula I prepared in Example 9, the crystal form C of the compound represented by Formula I prepared in Example 12, the crystal form D of the compound represented by Formula I prepared in Example 17, and the crystal form E of the compound represented by Formula I prepared in Example 20 were measured for granularity, and the specific results are shown in Table 7 below: […]

[2] = Fluidity test (angle of repose); format: physicochemical; conditions: for fluidity compared to the amorphous form: conclusion from Table 8
From the text: as §1, with “for angle of repose,” for “for granularity,”, “Table 8” for “Table 7”

Hygroscopicity test = format: physicochemical; conditions: for hygroscopicity: 75% RH and 25° C. for 24 h; for hygroscopicity compared to the amorphous form: conclusion from Table 9
From the text: The amorphous form of the compound represented by Formula I prepared in Preparation Example, the crystal form A of the compound represented by Formula I prepared in Example 1, the crystal form B of the compound represented by Formula I prepared in Example 9, the crystal form C of the compound represented by Formula I prepared in Example 12, the crystal form D of the compound represented by Formula I prepared in Example 17, and the crystal form E of the compound represented by Formula I prepared in Example 20 were placed in an environment of 75% RH and 25° C. for 24 h and then each was weighed to calculate the hygroscopicity.

RET kinase = RET kinase (Homo sapiens, UniProt P07949); conditions: stated for WO2020/207419A1; cited from earlier work
Chain of RET kinase (P07949 29-1114): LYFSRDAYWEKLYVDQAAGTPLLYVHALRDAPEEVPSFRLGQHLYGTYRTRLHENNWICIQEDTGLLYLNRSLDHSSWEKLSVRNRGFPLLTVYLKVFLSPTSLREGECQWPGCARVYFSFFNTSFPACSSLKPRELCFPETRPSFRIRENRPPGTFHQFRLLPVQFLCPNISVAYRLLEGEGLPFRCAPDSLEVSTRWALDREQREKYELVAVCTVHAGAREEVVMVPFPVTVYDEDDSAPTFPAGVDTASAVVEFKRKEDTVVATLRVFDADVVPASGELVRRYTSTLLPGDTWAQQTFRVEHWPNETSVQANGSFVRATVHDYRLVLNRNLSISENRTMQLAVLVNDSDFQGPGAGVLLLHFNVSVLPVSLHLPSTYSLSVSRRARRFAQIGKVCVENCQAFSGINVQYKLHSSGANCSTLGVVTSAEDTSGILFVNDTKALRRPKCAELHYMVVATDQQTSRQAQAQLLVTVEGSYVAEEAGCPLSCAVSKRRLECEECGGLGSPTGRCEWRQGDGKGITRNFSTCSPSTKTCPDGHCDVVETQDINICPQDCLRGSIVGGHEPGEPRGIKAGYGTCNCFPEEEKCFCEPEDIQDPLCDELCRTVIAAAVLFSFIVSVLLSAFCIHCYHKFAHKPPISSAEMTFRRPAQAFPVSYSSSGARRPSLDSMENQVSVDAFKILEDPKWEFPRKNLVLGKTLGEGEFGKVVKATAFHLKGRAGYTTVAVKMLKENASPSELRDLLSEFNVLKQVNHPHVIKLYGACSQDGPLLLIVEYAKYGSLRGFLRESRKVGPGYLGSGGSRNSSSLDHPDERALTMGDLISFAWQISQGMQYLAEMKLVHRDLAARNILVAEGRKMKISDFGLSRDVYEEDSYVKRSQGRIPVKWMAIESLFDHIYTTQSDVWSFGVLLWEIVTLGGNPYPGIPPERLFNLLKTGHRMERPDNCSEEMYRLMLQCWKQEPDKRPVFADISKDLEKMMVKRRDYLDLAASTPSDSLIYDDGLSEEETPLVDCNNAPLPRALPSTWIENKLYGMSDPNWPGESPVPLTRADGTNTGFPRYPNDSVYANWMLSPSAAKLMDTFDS

| SMILES | purity ([1]; day 0) | purity ([1]; day 30 at 40° C.) | purity ([1]; day 30 at 60° C.) | purity ([1]; day 30 under 75% RH) | purity ([1]; day 30 under 92.5% RH) | purity ([1]; day 30 under illumination) | D50 (granularity) (Granularity test) [μm] | D90 (granularity) (Granularity test) [μm] | angle of repose ([2]; measurement 1) [°] | angle of repose ([2]; measurement 2) [°] | angle of repose ([2]; measurement 3) | hygroscopicity (Hygroscopicity test) [%] | stability compared to the amorphous form [1] | fluidity compared to the amorphous form [2] | hygroscopicity compared to the amorphous form (Hygroscopicity test) | also measured |
| --- | --- | --- | --- | --- | --- | --- | --- | --- | --- | --- | --- | --- | --- | --- | --- | --- |
| Cc1cc(Nc2cc(C)[nH]n2)nc(N2CC3CCC(C2)N3C(=O)c2ccc(-n3cc(F)cn3)nn2)n1 [amorphous form, (6-(4-fluoro-1H-pyrazol-1-yl)pyridazin-3-yl)(3-(4-methyl-6-((5-methyl-1H-pyrazol-3-yl)amino)pyrimidin-2-yl) 3,8-diazabicyclo[3.2.1]octane-8-yl) methanone, reference compound] | 96.77 | 96.17 (its | 95.98 (its | 95.94 | 95.23 | 94.37 | 3.52 | 18.45 | 43.8 | 44.3 | 43.4° | 0.45 | – | – | – | X-ray powder diffraction pattern after storage ([1]; day 30 at 40° C.): changes); X-ray powder diffraction pattern after storage ([1]; day 30 at 60° C.): changes); granularity compared to crystal forms A, B, C, D and E (Granularity test; conclusion from Table 7): significantly smaller; D50 of amorphous form relative to the crystal form D50 (Granularity test; versus crystal forms A-E): not more than 12%; D90 of amorphous form relative to the crystal form D90 (Granularity test; versus crystal forms A-E): not more than 25% |
| Cc1cc(Nc2cc(C)[nH]n2)nc(N2CC3CCC(C2)N3C(=O)c2ccc(-n3cc(F)cn3)nn2)n1 [compound represented by formula I, (6-(4-fluoro-1H-pyrazol-1-yl)pyridazin-3-yl)(3-(4-methyl-6-((5-methyl-1H-pyrazol-3-yl)amino)pyrimidin-2-yl)-3,8-diazabicyclo[3.2.1]octan-8-yl) methanone] | – | – | – | – | – | – | – | – | – | – | – | – | – | – | – | effect of inhibiting RET kinase (RET kinase): good effect of inhibiting RET kinase |
| Cc1cc(Nc2cc(C)[nH]n2)nc(N2CC3CCC(C2)N3C(=O)c2ccc(-n3cc(F)cn3)nn2)n1 [crystal form A, (6-(4-fluoro-1H-pyrazol-1-yl)pyridazin-3-yl)(3-(4-methyl-6-((5-methyl-1H-pyrazol-3-yl)amino)pyrimidin-2-yl)-3,8-diazabicyclo[3.2.1]octan-8-yl) methanone] | 99.85 | 99.80 | 99.77 | 99.67 | 99.48 | 98.88 | 38.62 | 95.11 | 32.5 | 31.9 | 32.2° | 0.02 | better stability | significantly superior | significantly better | – |
| Cc1cc(Nc2cc(C)[nH]n2)nc(N2CC3CCC(C2)N3C(=O)c2ccc(-n3cc(F)cn3)nn2)n1 [crystal form B, (6-(4-fluoro-1H-pyrazol-1-yl)pyridazin-3-yl)(3-(4-methyl-6-((5-methyl-1H-pyrazol-3-yl)amino)pyrimidin-2-yl)-3,8-diazabicyclo[3.2.1]octan-8-yl) methanone] | 99.80 | 99.68 | 99.62 | 99.52 | 99.23 | 98.56 | 32.53 | 86.77 | 33.4 | 34.1 | 34.2° | 0.05 | better stability | significantly superior | significantly better | – |
| Cc1cc(Nc2cc(C)[nH]n2)nc(N2CC3CCC(C2)N3C(=O)c2ccc(-n3cc(F)cn3)nn2)n1 [crystal form C, (6-(4-fluoro-1H-pyrazol-1-yl)pyridazin-3-yl)(3-(4-methyl-6-((5-methyl-1H-pyrazol-3-yl)amino)pyrimidin-2-yl)-3,8-diazabicyclo[3.2.1]octan-8-yl) methanone] | 99.75 | 99.51 | 99.38 | 99.45 | 99.08 | 98.22 | 31.58 | 79.47 | 33.8 | 33.9 | 33.2.° | 0.06 | better stability | significantly superior | significantly better | – |
| Cc1cc(Nc2cc(C)[nH]n2)nc(N2CC3CCC(C2)N3C(=O)c2ccc(-n3cc(F)cn3)nn2)n1 [crystal form D, (6-(4-fluoro-1H-pyrazol-1-yl)pyridazin-3-yl)(3-(4-methyl-6-((5-methyl-1H-pyrazol-3-yl)amino)pyrimidin-2-yl)-3,8-diazabicyclo[3.2.1]octan-8-yl) methanone] | 99.60 | 99.42 | 99.33 | 99.35 | 99.01 | 98.23 | 33.64 | 83.56 | 33.0 | 33.8 | 33.3° | 0.08 | better stability | significantly superior | significantly better | – |
| Cc1cc(Nc2cc(C)[nH]n2)nc(N2CC3CCC(C2)N3C(=O)c2ccc(-n3cc(F)cn3)nn2)n1 [crystal form E, (6-(4-fluoro-1H-pyrazol-1-yl)pyridazin-3-yl)(3-(4-methyl-6-((5-methyl-1H-pyrazol-3-yl)amino)pyrimidin-2-yl)-3,8-diazabicyclo[3.2.1]octan-8-yl) methanone] | 99.76 | 99.70 | 99.65 | 99.60 | 99.50 | 98.65 | 30.36 | 75.89 | 34.2 | 35.1 | 34.8° | 0.05 | better stability | significantly superior | significantly better | – |
